Broadly, the MIC90 is an inhibitory concentration at the 90% level, which refers to growth in some studies and to a panel of isolates in others. A higher MIC90 goes with lower susceptibility. The term MIC denotes the lowest concentration found to suppress growth.

The structures appear in SMILES notation. Several values for one entry are separate records, joined by “and”; a condition that tells them apart may be missing. Identical values can stand only once.

The text below walks through data of paper PMC8217011, “Natural brominated phenoxyphenols kill persistent and biofilm-incorporated cells of MRSA and other pathogenic bacteria” (Applied Microbiology and Biotechnology, 2020).

The subject of data set [1] is actively replicating MRSA strain Mu50. Briefly: Killing kinetics, actively replicating cells (CFU plating). In kind it is cell-based, Staphylococcus aureus. To be noted: MHB, start 10^6 CFU/mL; for time of first antibacterial effects: 4× MIC; for time until viability reached the detection limit: PPs at 4× MIC, moxifloxacin 20 μM, detection limit 10^2 CFU/mL. The protocol:
S. aureus cells were freshly incubated in MHB until an OD600 nm of approx. 0.6 was reached. Next, the cells were diluted to 10^6 CFU/mL in 5 mL MHB. […] At certain time points (0, 0.5, 1, 3, 6, 8, 24 h), 100 μL was removed from the culture, diluted and plated onto MHA plates. After 24-h incubation, colonies were counted and viability (expressed as colony-forming units per mL (CFU/mL)) was calculated considering the dilution factor.

Data set [2] deals with preformed biofilms of P. aeruginosa POA1. In words: Antibiofilm activity assay, viability by Resazurin reduction. In kind it is cell-based, Pseudomonas aeruginosa. (Resazurin is reduced to fluorescent resorufin, in cell work by metabolically active cells.)
For another data set, the system named is human PBMNCs. Also on record: method as in Mayer et al. [2019]. To be noted: ref Mayer et al. [2019]; cited from earlier work.
For data set [3], the system named is Pseudomonas aeruginosa PAO1. Briefly: MIC determination (microbroth dilution). It is filed as cell-based. The procedure: (§1) Cultures were, if not stated differently, incubated at 37 °C with aeration and shaking (150 rpm) in Mueller-Hinton broth (MHB). Bacteria were freshly incubated at the next morning from an overnight pre-culture for actively growing bacteria to an OD600 nm of approx. 0.6. To ensure persistent growth form, the bacteria were grown overnight until a density at OD600 nm > 5.0 was obtained. For biofilm growth, some colonies from a Mueller-Hinton agar (MHA) plate were picked and resuspended in MHB. Cell density has been adjusted to OD600 nm = 0.8, and cells were sown into a flat-bottom 96-well plate to be incubated statically at 37 °C with aeration. Studies were mainly performed with S. aureus Mu50.
(§2) The minimal inhibitory concentration (MIC) has been determined according to the CSLI guidelines (CLSI [2012]). Briefly, in a sterile polystyrene U-bottom 96-well plate, a 2-fold serial dilution ranging from 100 to 0.78 μM of testing compounds has been prepared in 50 μL MHB. A freshly inoculated S. aureus culture was grown until OD600 nm of approx. 0.6 and diluted to 10^6 CFU/mL in MHB. Finally, 50 μL of the latter cell suspension was added to each well and then incubated statically for 18–24 h at 37 °C. MIC was determined using BacTiterGlo ATP assay (Promega, Madison, WI, USA) and Tecan Infinite F200 Pro (Tecan, Männedorf, Switzerland). Moxifloxacin and DMSO were used as positive and negative control, respectively. Sublethal concentrations of colistin (0.1 μM) were used in some experiments to increase the permeability of the gram-negative cell envelope for compound testing. For E. cloacae, a broth microdilution assay was performed using a serial 2-fold dilution in 96-well flat-bottomed plates (Falcon, BD Bioscience, Heidelberg) of both PPs in broth LB medium (Roth, Karlsruhe) at a concentration range of 50–0.024 μM.

A further data set deals with S. aureus USA300. In words: MIC determination (microbroth dilution). In kind it is cell-based. To be noted: Staphylococcus aureus. The procedure:
as §1, §2
(In general: Dilution methods test growth across graded concentrations, often in twofold steps.)

The subject of a further data set is E. faecalis ATCC 51299. In words: MIC determination (microbroth dilution). It is filed as cell-based. To be noted: Enterococcus faecalis, ATCC51299. The procedure: as §1, §2
For data set [4], the system named is Staphylococcus aureus strain ATCC 25923. Briefly: MIC determination (microbroth dilution). It is filed as cell-based. Conditions: ATCC25923. The procedure:
as §1, §2

Data set [5] has as its system Klebsiella pneumoniae ATCC 700603. In words: MIC determination (microbroth dilution). In kind it is cell-based. Conditions: ATCC700603. The procedure: as §1, §2
In a further data set the test system is S. aureus TCH1516. Briefly: MIC determination (microbroth dilution). It is filed as cell-based. To be noted: Staphylococcus aureus. The protocol: as §1, §2
The test system of data set [6] is MRSA strain containing pLA03::tetR. Briefly: MIC in recombinant strain, tetR overexpression. It is filed as cell-based, Staphylococcus aureus. Conditions: for MIC: Staphylococcus aureus, MRSA. The protocol: To corroborate the role as potential determinants of resistance, mtlA and tetR were overexpressed under control of an anhydrotetracycline (Atc)-inducible promoter, and the effect on sensitivity toward 3-bromo-PP was analysed (Fig. 4e). […] However, induction of mtlA or tetR expression in the presence of Atc strongly rendered the cells more susceptible to 3-bromo-PP resulting in MICs of 0.019 μM for mtlA and 0.078 μM for tetR overexpression, respectively. This translates into a […] and 8-fold increased sensitivity during mtlA or tetR overexpression, respectively, compared with the empty vector control (Fig. 4e).

Consider `Oc1c(Br)cc(Br)cc1Oc1ccc(Br)cc1Br` [2-bromo-PP, 4,6-dibromo-2-(2′,4′-dibromophenoxy)phenol], for which, in data set [1], the “time of first antibacterial effects” value is listed as 3 h. In [1], the “time until viability reached the detection limit” value is given as 8 h. Besides, the “concentration of complete inhibition of cell viability in biofilms” value in data set [2] is 25 µM. Further, in the data set with human PBMNCs, the cytotoxicity entry is given as “low cytotoxicity”. The MIC90 in [3] is 0.78 µM and 0.39 µg/mL; against S. aureus USA300, 0.78 µM and 0.39 µg/mL; against E. faecalis ATCC 51299, 0.78 µM and 0.39 µg/mL; in data set [4], 0.39 µM and 0.2 µg/mL; in data set [5], 1.56 µM and 0.78 µg/mL; in the data set with S. aureus TCH1516 it was 0.78 µM and 0.39 µg/mL.

Take `Oc1c(Br)cc(Br)c(Br)c1Oc1ccc(Br)cc1Br` [3-bromo-PP, 3,4,6-tribromo-2-(2′,4′-dibromophenoxy)phenol]: the “time of first antibacterial effects” value in data set [1] is given as 6 h. Besides, the “time until viability reached the detection limit” value in data set [1] was found to be 8 h. The “concentration of complete inhibition of cell viability in biofilms” value in data set [2] was determined as 50 µM. Moreover, in the data set with human PBMNCs, the cytotoxicity result is “low cytotoxicity”. Also, the MIC90 in data set [3] was 1.56 µM and 0.9 µg/mL; in the data set with S. aureus USA300, 0.39 µM and 0.23 µg/mL; against E. faecalis ATCC 51299, 0.78 µM and 0.45 µg/mL; in [4], 0.78 µM and 0.45 µg/mL; in data set [5], 3.12 µM and 1.81 µg/mL; in the data set on S. aureus TCH1516 it was 0.78 µM and 0.45 µg/mL. Besides, the minimum inhibitory concentration (MIC) in data set [6] (induced with Atc (1 μg/mL anhydrotetracycline)) was 0.078 µM; in data set [6] (non-induced), 0.312 µM. In addition, the “increased sensitivity compared with the empty vector control” value in data set [6] (tetR overexpression) came out at 8 fold.
